Among the data in ChEMBL document CHEMBL5053538, “Precursor-Directed Biosynthesis of Talaroenamine Derivatives Using a Yellow River Wetland-Derived Penicillium malacosphaerulum” (2021) are MIC values, retold here.

Converted amounts (≈) assume the structure as drawn.

Format in all cases: functional
Assay [1] has as its system Bacillus cereus. Briefly: Antimicrobial activity against Bacillus cereus assessed as inhibition of bacterial growth incubated for 24 hrs by agar dilution method. In general terms: Agar dilution tests growth on a series of plates holding different concentrations.
Assay [2] relates to Proteus sp. The assay is described as follows: Antimicrobial activity against Proteus sp. assessed as inhibition of bacterial growth incubated for 24 hrs by agar dilution method. As to conditions: Proteus sp. (in: enterobacteria).
In assay [3] the test system is Bacillus subtilis. The assay is described as follows: Antimicrobial activity against Bacillus subtilis assessed as inhibition of bacterial growth incubated for 24 hrs by agar dilution method.
For assay [4], the system named is Escherichia coli. The assay is described as follows: Antimicrobial activity against Escherichia coli assessed as inhibition of bacterial growth incubated for 24 hrs by agar dilution method.
Assay [5] deals with Pseudomonas. The assay is described as follows: Antimicrobial activity against Pseudomonas assessed as inhibition of bacterial growth incubated for 24 hrs by agar dilution method.
The subject of assay [6] is Mycolicibacterium phlei. The assay is described as follows: Antimicrobial activity against Mycobacterium phlei assessed as inhibition of bacterial growth incubated for 24 hrs by agar dilution method.
In assay [7] the test system is Edwardsiella tarda. The assay is described as follows: Antimicrobial activity against Edwardsiella tarda assessed as inhibition of bacterial growth incubated for 24 hrs by agar dilution method.
The subject of assay [8] is Acinetobacter baumannii. Briefly: Antimicrobial activity against Acinetobacter baumannii assessed as inhibition of bacterial growth incubated for 24 hrs by agar dilution method.

As for `CC1=CC(=O)[C@@](C)(O)C(=O)/C1=C\Nc1cccc(OC(F)(F)F)c1`, the minimal inhibitory concentration (MIC) (as a rule, the least concentration at which growth counts as inhibited) is 2.13 µg/mL (≈ 6.24 µM) in assay [1]; 2.13 µg/mL (≈ 6.24 µM) in assay [2]; 2.13 µg/mL (≈ 6.24 µM) in assay [3]; 4.26 µg/mL (≈ 12.5 µM) in assay [4]; > 10 µg/mL in assay [5]; > 10 µg/mL in assay [6]. The MIC in assay [7] and in assay [8] was > 10 µg/mL in each case.

Regarding `O=C(O)c1cn(C2CC2)c2cc(N3CCNCC3)c(F)cc2c1=O` [CIPROFLOXACIN], the MIC is 0.26 µg/mL (≈ 0.785 µM) in assay [1]; 0.06 µg/mL (≈ 0.181 µM) in assay [2]; 0.06 µg/mL (≈ 0.181 µM) in assay [3]; 1.04 µg/mL (≈ 3.14 µM) in assay [5]; 0.26 µg/mL (≈ 0.785 µM) in assay [6]; 0.02 µg/mL (≈ 0.0604 µM) in assay [7]. For the same molecule, the minimum inhibitory concentration (MIC) in assay [8] was determined as 2.07 µg/mL (≈ 6.25 µM).

As for `CC1=CC(=O)[C@@](C)(O)C(=O)/C1=C\Nc1ccc(F)c([N+](=O)[O-])c1`, the MIC in assay [1], in assay [2], in assay [3], in assay [4], in assay [5] and in assay [6] was > 10 µg/mL in each case. In addition, the MIC in assay [7] and in assay [8] was > 10 µg/mL in each case.

Turning to `CC1=CC(=O)[C@@](C)(O)C(=O)/C1=C\Nc1cc(F)c(F)c(F)c1`, the MIC was > 10 µg/mL in assay [1]; > 10 µg/mL in assay [2]; > 10 µg/mL in assay [3]; > 10 µg/mL in assay [4]; 7.76 µg/mL (≈ 24.9 µM) in assay [5]; > 10 µg/mL in assay [6]. The MIC in assay [7] and in assay [8] was > 10 µg/mL in each case.

Turning to `CC1=CC(=O)[C@@](C)(O)C(=O)/C1=C\Nc1ccccc1`, the MIC in assay [1], in assay [2], in assay [3], in assay [4], in assay [5] and in assay [6] was > 10 µg/mL throughout. For the same molecule, the minimal inhibitory concentration (MIC) in assay [7] and in assay [8] was > 10 µg/mL each time.

In the case of `CC1=CC(=O)[C@@](C)(O)C(=O)/C1=C\Nc1ccc(C)cc1`, the MIC in assay [1] was 0.85 µg/mL (≈ 3.13 µM); in assay [2], 6.78 µg/mL (≈ 25 µM); in assay [3] it was 6.78 µg/mL (≈ 25 µM); in assay [4] it was 6.78 µg/mL (≈ 25 µM); in assay [5] it was > 10 µg/mL; in assay [6], > 10 µg/mL. For the same molecule, the minimum inhibitory concentration (MIC) in assay [7] and in assay [8] was > 10 µg/mL in each case.

Take `CC1=CC(=O)[C@@](C)(O)C(=O)/C1=C\Nc1ccc(Br)cc1F`: the minimal inhibitory concentration (MIC) was > 10 µg/mL in assay [1]; > 10 µg/mL in assay [2]; > 10 µg/mL in assay [3]; 8.83 µg/mL (≈ 24.9 µM) in assay [4]; > 10 µg/mL in assay [5]; > 10 µg/mL in assay [6]. Moreover, the MIC in assay [7] and in assay [8] was > 10 µg/mL in each case.

For the molecule `CC1=CC(=O)[C@@](C)(O)C(=O)/C1=C\Nc1ccc(Br)cc1`, the MIC in assay [1], in assay [2], in assay [3], in assay [4], in assay [5] and in assay [6] was > 10 µg/mL each time. In addition, the minimum inhibitory concentration (MIC) in assay [7] and in assay [8] was > 10 µg/mL in each case.
